Key:
[1] = tested on: H3K27me3 and H3K9me3 at target genes; assay: Chromatin immunoprecipitation (ChIP-PCR) in MDA-MB-231 cells; assay type: cell-based; details: MDA-MB-231, 2.5 μM, 24 h
Source text: Fig. 3 Effects of hit compounds on RNA levels and histone marks. a Sybr green real-time PCR mRNA level measurement of EZH2 target genes and executing enzymes following a 48-h compound treatment at different concentrations of MDA-MB-231 cells. Measurements marked with an ‘*’ are below detection limit, most likely due to cell death. […] Error bars represent the mean ± SD of experiment performed in technical triplicate. b Sybr green real-time PCR measurement of the FBXO32 transcription start site and KRT17 promoter region following chromatin immunoprecipitation, using antibodies to the histone marks shown, of MDA-MB-231 cells treated with three selected compounds at 5 μM for 72 h. […] The fold difference to the untreated sample is shown. Each IP-value has been determined as the relative increase to the no-antibody control and then normalised to GAPDH levels
Fig. 4 Compound-induced upregulation of EZH2-repressed target genes. a Enrichment scores for differential expression of EZH2 targets on treatment with panel of compounds. […] Each IP-value has been determined as the relative increase to the no-antibody control and is shown as fold difference relative to the untreated control. d Western blot showing levels of modified histones, following a 48-h treatment with HKMTI-1-005 at different doses. […]

[2] = tested on: MDA-MB-231 cells; assay: Caspase 3/7 activity (apoptosis); assay type: cell-based; details: MDA-MB-231, dose-dependent (Figure S2)
[3] = tested on: MDA-MB-231 cells; assay: Clonogenic growth assay; assay type: cell-based; details: Homo sapiens; MDA-MB-231, 48 h treatment then 12 days in fresh media
Experimental: (§1) For clonogenic assays, cells were treated with compound for 48 h, media were removed and replaced with fresh media for a further 12 days to measure colony formation. For cell viability assays, lymphoma cells were plated at 20,000 cells in 200 μl per well in U-bottom 96 well plates in RPMI medium +20 % FCS. Cells were re-suspended 48 h later, diluted 10-fold in PBS + propidium iodide (PI) and the concentration of PI negative cells was counted using an Attune flow cytometer with autosampler. Breast cancer cells were seeded at a density of 10,000 cells/well in a sterile 96 clear-well plate with 150 μl of DMEM (+10 % FCS and 2 mM L-Glutamine). Each compound treatment was performed in triplicate for 72 h at concentrations of 100 nM and 1, 5, 10 and 50 μM in 100 μl of full-medium. After 72 h, 20 μl of MTT solution (3 mg of MTT Formazan, Sigma/1 ml PBS) was added to the medium and incubated for 4 h at 37 °C in a CO2 incubator. The MTT-product was solubilised with 100 μl DMSO, and for 1 h, incubated in the dark at room temperature. The optical density was read at 570 nm with PHERAstar.

[4] = tested on: BT-474; assay: MTT cell viability assay; assay type: cell-based; details: Homo sapiens, read-out: Cell growth IC50 BT-474
Experimental: as §1

[5] = tested on: T-47D; assay: MTT cell viability assay; assay type: cell-based; details: Homo sapiens, T47D, read-out: Cell growth IC50 T-47D
Experimental: as §1

[6] = tested on: MCF-7; assay: MTT cell viability assay; assay type: cell-based; details: Homo sapiens, MCF7, read-out: Cell growth IC50 MCF-7
Experimental: as §1

[7] = tested on: SkBr3; assay: MTT cell viability assay; assay type: cell-based; details: Homo sapiens, SK-BR-3, read-out: Cell growth IC50 SkBr3
Experimental: as §1

[8] = target: trimeric PRC2 complex (EZH2:EED:SUZ12) (Homo sapiens, UniProt Q15910); assay: PRC2 enzymatic assay (SPA-type), biotinylated-H3 (21–44) peptide substrate; assay type: biochemical; details: mechanism of inhibition studies (Figure S4)
Source text: (§2) A trimeric PRC2 complex (EZH2:EED:SUZ12) was employed in this assay, along with a biotinylated-H3 (21–44) peptide substrate. […] Since the peptide substrates used in these assays are poor models for the complex and dynamic structure of the chromatin substrate in cells and since the only minimal number of PRC2 proteins (EZH2:EED:SUZ12) required for enzymatically active EZH2 were employed in the PRC2 assay, care should be taken in the over interpretation of this in vitro inhibitory data.

[9] = target: trimeric PRC2 complex (EZH2:EED:SUZ12) (Homo sapiens, UniProt O75530+Q15022+Q15910); assay: as above; assay type: biochemical; details: EZH2:EED:SUZ12, biotinylated-H3 (21–44) peptide substrate
Source text: as §2

Sequence of trimeric PRC2 complex (EZH2:EED:SUZ12) (Homo sapiens, UniProt O75530+Q15022+Q15910) (Q15910 whole entry): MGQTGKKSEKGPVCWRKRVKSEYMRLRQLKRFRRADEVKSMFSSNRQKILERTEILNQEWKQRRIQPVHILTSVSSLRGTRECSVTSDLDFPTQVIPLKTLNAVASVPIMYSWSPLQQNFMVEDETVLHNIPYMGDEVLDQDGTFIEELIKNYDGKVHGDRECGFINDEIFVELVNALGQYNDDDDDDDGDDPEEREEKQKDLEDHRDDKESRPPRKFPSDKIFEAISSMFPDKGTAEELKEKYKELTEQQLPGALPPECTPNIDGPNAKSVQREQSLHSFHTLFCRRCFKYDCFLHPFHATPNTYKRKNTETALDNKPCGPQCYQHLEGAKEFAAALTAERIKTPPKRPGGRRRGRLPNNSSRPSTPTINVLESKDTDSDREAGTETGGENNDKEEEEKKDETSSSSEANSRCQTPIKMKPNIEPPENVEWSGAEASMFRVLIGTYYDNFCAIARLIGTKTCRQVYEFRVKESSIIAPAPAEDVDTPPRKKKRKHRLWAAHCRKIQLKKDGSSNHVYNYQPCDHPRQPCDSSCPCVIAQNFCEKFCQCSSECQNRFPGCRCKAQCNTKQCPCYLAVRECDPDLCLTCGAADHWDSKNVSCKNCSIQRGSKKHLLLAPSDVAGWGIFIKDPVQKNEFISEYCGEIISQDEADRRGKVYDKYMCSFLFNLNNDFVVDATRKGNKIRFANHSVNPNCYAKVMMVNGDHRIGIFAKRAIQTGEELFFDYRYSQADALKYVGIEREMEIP
Sequence of trimeric PRC2 complex (EZH2:EED:SUZ12) (Homo sapiens, UniProt O75530+Q15022+Q15910) (O75530 whole entry partner): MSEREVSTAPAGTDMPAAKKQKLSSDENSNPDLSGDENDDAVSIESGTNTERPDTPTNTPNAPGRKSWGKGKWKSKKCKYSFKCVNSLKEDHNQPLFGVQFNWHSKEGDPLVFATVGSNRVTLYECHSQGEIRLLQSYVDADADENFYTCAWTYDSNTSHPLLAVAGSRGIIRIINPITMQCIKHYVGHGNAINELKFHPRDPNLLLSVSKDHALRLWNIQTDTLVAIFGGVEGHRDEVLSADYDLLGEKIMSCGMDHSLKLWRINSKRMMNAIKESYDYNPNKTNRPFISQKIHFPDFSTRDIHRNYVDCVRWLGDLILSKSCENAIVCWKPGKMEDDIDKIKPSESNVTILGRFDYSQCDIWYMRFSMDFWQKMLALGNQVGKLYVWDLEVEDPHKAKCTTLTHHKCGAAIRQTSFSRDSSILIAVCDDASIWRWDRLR
Sequence of trimeric PRC2 complex (EZH2:EED:SUZ12) (Homo sapiens, UniProt O75530+Q15022+Q15910) (Q15022 whole entry partner): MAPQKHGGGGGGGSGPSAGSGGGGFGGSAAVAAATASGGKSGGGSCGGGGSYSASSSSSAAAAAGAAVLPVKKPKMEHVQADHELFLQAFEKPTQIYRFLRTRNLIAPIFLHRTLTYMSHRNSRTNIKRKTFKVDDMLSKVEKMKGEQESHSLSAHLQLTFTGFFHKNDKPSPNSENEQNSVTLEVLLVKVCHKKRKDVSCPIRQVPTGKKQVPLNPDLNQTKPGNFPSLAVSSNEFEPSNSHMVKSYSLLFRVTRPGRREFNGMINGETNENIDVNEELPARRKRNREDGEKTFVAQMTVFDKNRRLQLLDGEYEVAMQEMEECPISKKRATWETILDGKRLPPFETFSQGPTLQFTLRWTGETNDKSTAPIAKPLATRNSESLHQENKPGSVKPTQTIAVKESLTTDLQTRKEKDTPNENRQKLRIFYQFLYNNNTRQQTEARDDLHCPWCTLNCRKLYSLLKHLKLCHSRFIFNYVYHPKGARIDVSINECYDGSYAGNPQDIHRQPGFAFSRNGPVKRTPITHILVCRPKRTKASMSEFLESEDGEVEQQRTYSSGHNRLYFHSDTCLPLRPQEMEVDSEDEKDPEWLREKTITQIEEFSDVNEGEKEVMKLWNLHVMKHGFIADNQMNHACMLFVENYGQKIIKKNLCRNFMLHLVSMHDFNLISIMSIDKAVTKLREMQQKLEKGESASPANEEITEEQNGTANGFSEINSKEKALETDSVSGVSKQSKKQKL
Sequence of trimeric PRC2 complex (EZH2:EED:SUZ12) (Homo sapiens, UniProt Q15910) (Q15910 whole entry): as the sequence (Q15910 whole entry) above
Sequence of trimeric PRC2 complex (EZH2:EED:SUZ12) (Homo sapiens, UniProt Q15910) (O75530 whole entry partner): as the sequence (O75530 whole entry partner) above
Sequence of trimeric PRC2 complex (EZH2:EED:SUZ12) (Homo sapiens, UniProt Q15910) (Q15022 whole entry partner): as the sequence (Q15022 whole entry partner) above

With `COc1cc2nc(N3CCN(C)CC3)nc(NC3CCN(Cc4ccccc4)CC3)c2cc1OC` [HKMTI-1-005] the “H3K27me3 and H3K9me3 at the SPINK1 transcription start site (ChIP-PCR)” value [1] was “reduction in both H3K27me3 and H3K9me3”, the “Induction of apoptosis measured by Caspase 3/7 activity” value [2] was “induces apoptosis” and the IC50 [3] was 0.41 µM. The IC50 [4] was 2.1 µM, the IC50 [5] was 8.5 µM and the IC50 [6] was 7.7 µM. For the same compound, the IC50 [7] was 7.7 µM, the “Mechanism of PRC2 inhibition” value [8] was “peptide substrate competitive” and the IC50 [9] was 24 µM.
